Data published in PubChem BioAssay AID1918930 (Molecular Pharmacology Branch, DTP, NCI, 2023).

System: 233499-124-R-J3-PDC complex spheroid viability, % test/control
Test: Anticancer human tumor 233499-124-R-J3-PDC patient-derived colon adenocarcinoma cell line growth inhibition
Conditions: for IC50: curve of first compound; for viability, T/C: stronger effect = lower value
Method in brief: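 Complex spheroids of tumor cells with HUVEC and human MSCs, exposed to iadademstat combined with other agents. Each agent tested in half-log steps from near clinical Cmax (else 10 microM top), DMSO ≤0.25%.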

[1] = second compound 0.1 µM, first compound 0.0316 µM
[2] = second compound 0.1 µM, first compound 0.1 µM
[3] = second compound 0.316 µM, first compound 0.0316 µM
[4] = second compound 0.316 µM, first compound 0.1 µM
[5] = second compound 1 µM, first compound 0.0316 µM
[6] = second compound 1 µM, first compound 0.1 µM
[7] = second compound 3.16 µM, first compound 0.0316 µM
[8] = second compound 3.16 µM, first compound 0.1 µM
[9] = second compound 10 µM, first compound 0.0316 µM
[10] = second compound 10 µM, first compound 0.1 µM
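Further: spheroids exposed to agents for one week before readout.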

CC1(C)CCC(CN2CCN(c3ccc(C(=O)NS(=O)(=O)c4ccc(NCC5CCOCC5)c([N+](=O)[O-])c4)c(Oc4cnc5[nH]ccc5c4)c3)CC2)=C(c2ccc(Cl)cc2)C1 + NC1CC1c1ccc(-c2cccc(O)c2)cc1
IC50 (second compound 0.1 µM): 2680 nM
IC50 (second compound 0.316 µM): 2450 nM
IC50 (second compound 1 µM): 3180 nM
IC50 (second compound 3.16 µM): 2810 nM
IC50 (second compound 10 µM): 2270 nM
viability, T/C [1]: 84.1%
viability, T/C [2]: 109%
viability, T/C (second compound 0.1 µM, first compound 0.316 µM): 113%
viability, T/C (second compound 0.1 µM, first compound 1 µM): 107%
viability, T/C (second compound 0.1 µM, first compound 3.16 µM): 41.1%
viability, T/C (second compound 0.1 µM, first compound 10 µM): 0.86%
viability, T/C [3]: 114%
viability, T/C [4]: 102%
viability, T/C (second compound 0.316 µM, first compound 0.316 µM): 100%
viability, T/C (second compound 0.316 µM, first compound 1 µM): 111%
viability, T/C (second compound 0.316 µM, first compound 3.16 µM): 33.9%
viability, T/C (second compound 0.316 µM, first compound 10 µM): 0.83%
viability, T/C [5]: 88.7%
viability, T/C [6]: 92%
viability, T/C (second compound 1 µM, first compound 0.316 µM): 97.8%
viability, T/C (second compound 1 µM, first compound 1 µM): 102%
viability, T/C (second compound 1 µM, first compound 3.16 µM): 50.2%
viability, T/C (second compound 1 µM, first compound 10 µM): 0.7%
viability, T/C [7]: 100%
viability, T/C [8]: 97.1%
viability, T/C (second compound 3.16 µM, first compound 0.316 µM): 91.4%
viability, T/C (second compound 3.16 µM, first compound 1 µM): 99.3%
viability, T/C (second compound 3.16 µM, first compound 3.16 µM): 44.6%
viability, T/C (second compound 3.16 µM, first compound 10 µM): 0.57%
viability, T/C [9]: 76.7%
viability, T/C [10]: 83.9%
viability, T/C (second compound 10 µM, first compound 0.316 µM): 72.9%
viability, T/C (second compound 10 µM, first compound 1 µM): 81.1%
viability, T/C (second compound 10 µM, first compound 3.16 µM): 38.5%
viability, T/C (second compound 10 µM, first compound 10 µM): 0.43%

Cn1ncnc1C1c2n[nH]c(=O)c3cc(F)cc(c23)NC1c1ccc(F)cc1 (stereo not given) + NC1CC1c1ccc(-c2cccc(O)c2)cc1
IC50 (second compound 0.1 µM): > 100 nM
IC50 (second compound 0.316 µM): > 100 nM
IC50 (second compound 1 µM): > 100 nM
IC50 (second compound 3.16 µM): > 100 nM
IC50 (second compound 10 µM): > 100 nM
viability, T/C (second compound 0.1 µM, first compound 0.000316 µM): 106%
viability, T/C (second compound 0.1 µM, first compound 0.001 µM): 105%
viability, T/C (second compound 0.1 µM, first compound 0.00316 µM): 105%
viability, T/C (second compound 0.1 µM, first compound 0.01 µM): 91.2%
viability, T/C [1]: 95.4%
viability, T/C [2]: 84.4%
viability, T/C (second compound 0.316 µM, first compound 0.000316 µM): 89.1%
viability, T/C (second compound 0.316 µM, first compound 0.001 µM): 108%
viability, T/C (second compound 0.316 µM, first compound 0.00316 µM): 128%
viability, T/C (second compound 0.316 µM, first compound 0.01 µM): 98.1%
viability, T/C [3]: 102%
viability, T/C [4]: 89.3%
viability, T/C (second compound 1 µM, first compound 0.000316 µM): 85.7%
viability, T/C (second compound 1 µM, first compound 0.001 µM): 83.1%
viability, T/C (second compound 1 µM, first compound 0.00316 µM): 87.5%
viability, T/C (second compound 1 µM, first compound 0.01 µM): 74.2%
viability, T/C [5]: 89.5%
viability, T/C [6]: 88.5%
viability, T/C (second compound 3.16 µM, first compound 0.000316 µM): 89.9%
viability, T/C (second compound 3.16 µM, first compound 0.001 µM): 96%
viability, T/C (second compound 3.16 µM, first compound 0.00316 µM): 90.2%
viability, T/C (second compound 3.16 µM, first compound 0.01 µM): 76.5%
viability, T/C [7]: 76.7%
viability, T/C [8]: 78.5%
viability, T/C (second compound 10 µM, first compound 0.000316 µM): 74.7%
viability, T/C (second compound 10 µM, first compound 0.001 µM): 80.6%
viability, T/C (second compound 10 µM, first compound 0.00316 µM): 69.7%
viability, T/C (second compound 10 µM, first compound 0.01 µM): 70.3%
viability, T/C [9]: 58.7%
viability, T/C [10]: 58.8%

NS(=O)(=O)OCC1CC(n2ccc3c(NC4CCc5ccccc54)ncnc32)CC1O (stereo not given) + NC1CC1c1ccc(-c2cccc(O)c2)cc1
IC50 (second compound 0.1 µM): 46.8 nM
IC50 (second compound 0.316 µM): 58.5 nM
IC50 (second compound 1 µM): 42.3 nM
IC50 (second compound 3.16 µM): 52.4 nM
IC50 (second compound 10 µM): 46.4 nM
viability, T/C (second compound 0.1 µM, first compound 0.00949 µM): 92.5%
viability, T/C (second compound 0.1 µM, first compound 0.03 µM): 63.6%
viability, T/C (second compound 0.1 µM, first compound 0.0949 µM): 28.6%
viability, T/C (second compound 0.1 µM, first compound 0.3 µM): 6.14%
viability, T/C (second compound 0.1 µM, first compound 0.949 µM): 3.11%
viability, T/C (second compound 0.1 µM, first compound 3 µM): 2.93%
viability, T/C (second compound 0.316 µM, first compound 0.00949 µM): 100%
viability, T/C (second compound 0.316 µM, first compound 0.03 µM): 76.9%
viability, T/C (second compound 0.316 µM, first compound 0.0949 µM): 31.2%
viability, T/C (second compound 0.316 µM, first compound 0.3 µM): 5.03%
viability, T/C (second compound 0.316 µM, first compound 0.949 µM): 4.27%
viability, T/C (second compound 0.316 µM, first compound 3 µM): 3.91%
viability, T/C (second compound 1 µM, first compound 0.00949 µM): 92.3%
viability, T/C (second compound 1 µM, first compound 0.03 µM): 59.1%
viability, T/C (second compound 1 µM, first compound 0.0949 µM): 28.5%
viability, T/C (second compound 1 µM, first compound 0.3 µM): 9.59%
viability, T/C (second compound 1 µM, first compound 0.949 µM): 4.05%
viability, T/C (second compound 1 µM, first compound 3 µM): 3.47%
viability, T/C (second compound 3.16 µM, first compound 0.00949 µM): 90.8%
viability, T/C (second compound 3.16 µM, first compound 0.03 µM): 68.8%
viability, T/C (second compound 3.16 µM, first compound 0.0949 µM): 29.9%
viability, T/C (second compound 3.16 µM, first compound 0.3 µM): 9.96%
viability, T/C (second compound 3.16 µM, first compound 0.949 µM): 4.13%
viability, T/C (second compound 3.16 µM, first compound 3 µM): 3.43%
viability, T/C (second compound 10 µM, first compound 0.00949 µM): 84%
viability, T/C (second compound 10 µM, first compound 0.03 µM): 63.9%
viability, T/C (second compound 10 µM, first compound 0.0949 µM): 27.1%
viability, T/C (second compound 10 µM, first compound 0.3 µM): 8.93%
viability, T/C (second compound 10 µM, first compound 0.949 µM): 5.35%
viability, T/C (second compound 10 µM, first compound 3 µM): 2.93%
